Experimental findings from ChEMBL document CHEMBL1127221, “The design of a dipeptide library for screening at peptide receptor sites” (Bioorg Med Chem Lett, 1993) are described below.

In assay [1] the target is T1, Gastrin/cholecystokinin type B receptor (Homo sapiens, UniProt P32239).
T1 sequence (P32239 whole entry): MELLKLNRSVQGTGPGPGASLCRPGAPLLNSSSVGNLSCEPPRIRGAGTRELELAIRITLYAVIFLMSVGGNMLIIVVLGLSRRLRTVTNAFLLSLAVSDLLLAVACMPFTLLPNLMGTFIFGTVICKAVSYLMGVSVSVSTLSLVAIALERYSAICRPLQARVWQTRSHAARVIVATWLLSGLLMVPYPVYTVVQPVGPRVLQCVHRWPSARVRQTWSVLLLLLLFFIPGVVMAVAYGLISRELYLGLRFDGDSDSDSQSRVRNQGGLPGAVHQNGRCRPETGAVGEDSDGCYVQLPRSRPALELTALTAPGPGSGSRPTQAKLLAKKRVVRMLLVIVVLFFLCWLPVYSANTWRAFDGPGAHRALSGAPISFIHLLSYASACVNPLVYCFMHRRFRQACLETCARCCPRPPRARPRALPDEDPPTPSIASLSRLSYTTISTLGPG
In words: Inhibitory activity against Cholecystokinin type B receptor.

The target in assay [2] is T2, Cholecystokinin receptor type A (Homo sapiens, UniProt P32238).
T2 sequence (P32238 whole entry): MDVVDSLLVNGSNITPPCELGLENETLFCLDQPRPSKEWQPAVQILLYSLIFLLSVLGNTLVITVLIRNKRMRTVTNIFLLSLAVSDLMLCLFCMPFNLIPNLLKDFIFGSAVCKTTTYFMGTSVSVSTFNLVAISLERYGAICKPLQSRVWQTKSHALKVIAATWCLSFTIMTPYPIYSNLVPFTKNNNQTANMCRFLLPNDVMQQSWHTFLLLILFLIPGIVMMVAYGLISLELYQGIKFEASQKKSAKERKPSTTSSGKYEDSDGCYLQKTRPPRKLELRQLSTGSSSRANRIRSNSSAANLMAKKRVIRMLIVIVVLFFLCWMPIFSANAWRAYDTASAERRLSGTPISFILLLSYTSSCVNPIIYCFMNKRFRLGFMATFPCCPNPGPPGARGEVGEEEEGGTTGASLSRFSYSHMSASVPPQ
In words: Inhibitory activity against CCK-A receptor.

The target of assay [3] is Angiotensin-converting enzyme (Homo sapiens, UniProt P12821). In words: Inhibitory activity against Angiotensin I converting enzyme.
Sequence of Angiotensin-converting enzyme (P12821 whole entry): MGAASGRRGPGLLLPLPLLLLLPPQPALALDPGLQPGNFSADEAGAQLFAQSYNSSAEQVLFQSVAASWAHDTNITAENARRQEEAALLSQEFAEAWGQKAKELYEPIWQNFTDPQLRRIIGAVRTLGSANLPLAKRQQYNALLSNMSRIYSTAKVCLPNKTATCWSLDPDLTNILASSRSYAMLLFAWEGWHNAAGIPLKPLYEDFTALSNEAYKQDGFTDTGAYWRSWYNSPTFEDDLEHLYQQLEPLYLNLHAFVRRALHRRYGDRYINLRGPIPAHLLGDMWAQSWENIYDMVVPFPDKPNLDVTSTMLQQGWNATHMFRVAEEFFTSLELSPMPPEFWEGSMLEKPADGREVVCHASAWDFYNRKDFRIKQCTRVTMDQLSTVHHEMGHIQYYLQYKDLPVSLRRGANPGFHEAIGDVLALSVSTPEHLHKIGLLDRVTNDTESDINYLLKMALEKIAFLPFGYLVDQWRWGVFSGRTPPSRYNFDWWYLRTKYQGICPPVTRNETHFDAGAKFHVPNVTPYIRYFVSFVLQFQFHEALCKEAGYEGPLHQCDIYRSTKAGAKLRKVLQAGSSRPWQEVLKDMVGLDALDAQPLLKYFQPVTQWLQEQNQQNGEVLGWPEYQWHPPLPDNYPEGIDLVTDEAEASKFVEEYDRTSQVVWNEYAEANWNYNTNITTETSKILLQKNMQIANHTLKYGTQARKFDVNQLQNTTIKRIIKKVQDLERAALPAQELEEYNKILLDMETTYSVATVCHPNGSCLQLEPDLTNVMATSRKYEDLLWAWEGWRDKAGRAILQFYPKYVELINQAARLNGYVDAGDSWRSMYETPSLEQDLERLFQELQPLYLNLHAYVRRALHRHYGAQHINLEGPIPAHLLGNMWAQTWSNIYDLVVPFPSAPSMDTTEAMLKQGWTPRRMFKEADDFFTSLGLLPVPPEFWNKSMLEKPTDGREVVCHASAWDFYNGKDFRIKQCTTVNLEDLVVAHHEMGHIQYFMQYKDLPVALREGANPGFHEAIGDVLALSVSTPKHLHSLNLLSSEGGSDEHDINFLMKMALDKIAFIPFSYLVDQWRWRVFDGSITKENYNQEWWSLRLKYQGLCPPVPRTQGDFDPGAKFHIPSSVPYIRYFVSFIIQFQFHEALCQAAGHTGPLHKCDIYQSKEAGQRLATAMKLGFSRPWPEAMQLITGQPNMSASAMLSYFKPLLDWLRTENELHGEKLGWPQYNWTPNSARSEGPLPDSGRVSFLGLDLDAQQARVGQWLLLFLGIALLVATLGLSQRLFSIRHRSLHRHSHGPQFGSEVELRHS

Usually Ki stands for a measure of affinity in units of concentration, obtained from inhibition or displacement. As to `C[C@@](N)(Cc1cn(C(=O)OC2C3CC4CC(C3)CC2C4)c2ccccc12)C(=O)NC[C@H](NC(=O)CCC(=O)O)c1ccccc1` (stereo partly drawn), the affinity in assay [1], expressed as Ki, was 1.7 nM.
In assay [2], `C[C@@](N)(Cc1cn(C(=O)OC2C3CC4CC(C3)CC2C4)c2ccccc12)C(=O)N[C@H](CC(=O)O)Cc1ccccc1` (stereo partly drawn) returned a Ki of 3 nM.
In turn, H-EWPRPQIPP-OH yielded a Ki in assay [3] of 100 nM.
